{
  "source": "patent US9795632B2",
  "about": "“Cancer treatments and compositions for use thereof” (priority 2012, dated 2017)",
  "key": {"[1]": {"system": "micro-capillary blood flow to skin", "assay": "Laser Doppler microcirculation study in three human female subjects, 10,000 ppm NO (Example 5)", "format": "in vivo", "conditions": "applied to the skin at 1/10% in alcohol", "method": "This example illustrates delivery of nitric oxide formulations similar to those discussed herein in humans. In these studies, laser Doppler studies were performed on three human female subjects. […] The formulations used produce positive, almost immediate results when applied to the skin which, in these studies, was manifested by vasodilatation of the cutaneous vascular system.\nWhile nitric oxide has many physiological effects, the purpose of these studies was to measure physiological effects that would be relatively easy to determine, and which would be noninvasive. […] Nitric oxide is capable of […] the capillary bed, and thus, laser Doppler was selected.\nThe formulation used in these studies contained nitric oxide dispersed in a lipid matrix. […] This provided a stable measuring device as determined by multiple normal evaluations of the capillary blood flow without treatment of nitric oxide.\nA known positive control, methyl nicotinate, was applied to the skin at a concentration of 1/10% in alcohol. […] The laser Doppler device accurately measured these parameters.\nIn these studies, the participants were healthy females aged 30 to 55 years. They were in good health as determined by the medical history and were not taking any prescription medications. All study participants read and signed the informed consent statement prior to any study procedures being performed. […]"}, "[2]": {"system": "capillary circulation of the skin", "assay": "Laser Doppler circulation study in five human subjects (Example 7)", "format": "in vivo", "conditions": "positive control formulation containing 0.1% methyl nicotinate", "excerpt": "This example illustrates delivery of nitric oxide formulations to five human subjects, using procedures and formulations similar to those discussed in Example 5. Each person served as their own control for the testing. A Moor Instruments Laser Doppler was used to determine circulation. […] The formulations used produce positive, almost immediate results when applied to the skin which, in these studies, was manifested by vasodilatation of the cutaneous vascular system. For each subject, the following creams were applied: a negative control formulation (containing no NO), 0.010 gram of a 10,000 ppm NO formulation, 0.020 gram of a 10,000 ppm NO formulation, and a positive control formulation containing 0.1% methyl nicotinate. The formulations were prepared using procedures similar to those discussed in Example 1."}},
  "data": [
    {"smiles": "COC(=O)c1cccnc1", "note": "[methyl nicotinate]", "values": [
      {"measurement": "Vasodilator response of positive control", "setting": "[1]", "result": "rapid response typical of the vasodilator"},
      {"measurement": "Vasodilatation (laser Doppler)", "setting": "[2]", "result": "vasodilatation was observed"}
    ]}
  ]
}
